Test results: patent publication US9732094B2, “Arylquinazolines” (Merck Patent GmbH, priority 2013, dated 2017)
Like-named read-outs stand apart in the source and are kept apart here.

How the values were obtained:
[1] = target: T1, DNA-PK (Homo sapiens (Human), UniProt P78527); details: ATP-competitive; Hardcastle et al. (2005); cited from earlier work
[2] = target: T2, Kv11.1 (hERG) (Homo sapiens (Human), UniProt Q12809)
[3] = target: T1, DNA-PK; test: DNA-PK assay (biochemical), flashplate 33P-ATP kinase assay
In short: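 Radiometric kinase reaction in streptavidin-coated flashplates, stopped with 200 mM EDTA, then 30 min room-temperature incubation and saline washes.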

[4] = test system: kinases of the PI3K isoenzyme family; details: cited from earlier work
[5] = target: DNA-PK phosphorylation at serine 2056 (Homo sapiens (Human), UniProt P78527); test: DNA-PK phosphorylation at serine 2056 (cellular), bleomycin-treated HCT116 cells, ELISA; type: cell-based; details: cellular DNA-PK phosphorylation at serine 2056, HCT116; read-out: IC50 pDNA-PK
In short: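 HCT116 cells grown overnight were co-treated with 10 μM bleomycin and test compound for 6 h at 37 °C. Phospho-DNA-PK was quantified by chemiluminescent ELISA and normalised to total DNA-PKcs signal, with DMSO control as blank.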

[6] = target: T2, Kv11.1 (hERG); test: Kv11.1 ion channel binding assay (Predictor hERG fluorescence polarisation); details: cells marked *: measured using hERG binding assay instead of hERG patch clamp assay; read-out: Ki [Kv1.11 hERG]
Procedure: D) Kv11.1 Ion Channel Binding Assay
Kv11.1 (hERG=human ether a go-go related […]) is a cardiac K^+ channel which should if possible not interact with the test substances. This interaction is determined quantitatively with the aid of the Predictor™ hERG Fluorescence Polarizations (FP) Assays from Life Technologies. In the case of this assay principle, cardiomyocyte cell membranes having a certain proportion of Kv11.1 channels are isolated. A dye-labelled Kv11.1 binding partner gives a high fluorescence polarisation signal by interaction with the Kv11.1. In the case of displacement of the dye, a reduction in the fluorescence polarisation signal occurs.
The assay is carried out automatically as follows: 15 nl of the test substances (highest concentration: 10 mM, 10 concentrations: dilution factors 1:3.16, DMSO) are transferred into an empty microtitre plates having 384 wells by means of an acoustic pipetter. 3 μl of the isolated membranes are subsequently added. Membranes and test substances are incubated at 22° C. for 15 min (+/−5 min). In the next step, the dye-labelled binding partner is added, followed by incubation at 22° C. After incubation for two hours, the measurement of the fluorescence polarisation is carried out on an Envision multimode Reader. Measured raw data are standardised with the aid of Genedata Assay Analyzer. The 1050 and % effect values are calculated in Genedata Condoseo.

T2 sequence (Q12809 whole entry): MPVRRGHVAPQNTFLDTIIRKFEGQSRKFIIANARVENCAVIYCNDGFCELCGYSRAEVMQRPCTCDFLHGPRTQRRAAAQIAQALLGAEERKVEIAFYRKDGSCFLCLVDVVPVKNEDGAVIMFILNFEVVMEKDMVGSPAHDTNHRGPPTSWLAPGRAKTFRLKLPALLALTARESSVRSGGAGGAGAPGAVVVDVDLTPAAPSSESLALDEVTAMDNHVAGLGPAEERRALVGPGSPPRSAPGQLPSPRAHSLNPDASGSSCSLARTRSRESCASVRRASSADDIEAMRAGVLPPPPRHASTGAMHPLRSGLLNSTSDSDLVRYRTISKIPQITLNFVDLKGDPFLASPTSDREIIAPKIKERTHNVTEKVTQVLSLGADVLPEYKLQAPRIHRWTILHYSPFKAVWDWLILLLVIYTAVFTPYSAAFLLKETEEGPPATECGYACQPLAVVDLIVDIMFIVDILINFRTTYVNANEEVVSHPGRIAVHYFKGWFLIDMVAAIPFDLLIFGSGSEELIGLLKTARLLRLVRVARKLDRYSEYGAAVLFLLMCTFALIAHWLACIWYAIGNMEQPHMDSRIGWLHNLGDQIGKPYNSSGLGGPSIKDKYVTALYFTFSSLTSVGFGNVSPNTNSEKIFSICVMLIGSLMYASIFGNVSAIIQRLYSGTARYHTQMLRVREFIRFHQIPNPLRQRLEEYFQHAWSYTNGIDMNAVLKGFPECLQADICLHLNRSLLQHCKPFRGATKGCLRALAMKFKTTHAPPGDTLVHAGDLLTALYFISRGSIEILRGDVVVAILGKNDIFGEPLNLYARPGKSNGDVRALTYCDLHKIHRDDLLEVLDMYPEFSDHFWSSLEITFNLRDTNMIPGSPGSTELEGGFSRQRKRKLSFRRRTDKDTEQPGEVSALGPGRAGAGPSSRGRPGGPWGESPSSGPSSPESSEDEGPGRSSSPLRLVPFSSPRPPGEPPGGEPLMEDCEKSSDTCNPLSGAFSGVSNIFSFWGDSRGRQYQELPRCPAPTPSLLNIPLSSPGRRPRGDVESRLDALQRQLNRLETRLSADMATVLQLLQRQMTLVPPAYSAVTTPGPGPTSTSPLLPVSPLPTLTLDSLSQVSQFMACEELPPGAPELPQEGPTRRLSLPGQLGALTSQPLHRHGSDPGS

| IC50 [5] | IC50 ([3]; biochemical DNA-PK assay) | SMILES | Ki [6] | also measured |
| --- | --- | --- | --- | --- |
|  |  | O=c1cc(N2CCOCC2)oc2c(-c3cccc4c3sc3ccccc34)cccc12 [NU-7441] |  | IC50 [1]: 20 nM |
|  |  | O=c1ccc(C(O)c2ccc(F)c(-c3ncnc4cc(N5C6CCC5COC6)ccc34)c2)n[nH]1 (stereo not shown) [Example 75, 6-({4-Fluoro-3-[7-(3-oxa-8-aza-bicyclo-[3.2.1]oct-8-yl)-quinazolin-4-yl]phenyl}-hydroxymethyl)-2H-pyridazin-3-one] |  | Ki [2]: > 25000 nM; IC50 ([3]; enzymatic, 5 μM ATP): > 30 nM |
|  |  | CCN1CCN(CC(=O)Nc2ccc(-c3cccc4c(=O)cc(N5CCOCC5)oc34)c3sc4ccccc4c23)CC1 [KU-0060648] |  | inhibition of kinases of the PI3K isoenzyme family [4]: potently inhibited |
| < 500 nM | < 3 nM | Cc1nccnc1C(O)c1ccc(F)c(-c2ncnc3cc(N4CCOCC4)sc23)c1 (stereo not shown) [Example 245, [4-Fluoro-3-(6-morpholin-4-yl-thieno[3,2-d}-pyrimidin-4-yl)-phenyl]-(3-methyl-pyrazin-2-yl)-methanol] | > 25000 nM |  |
| 500 to 5000 nM | 3 to 7 nM | COc1ccc(C(O)c2cc(-c3ncnc4cc(N5CCOCC5)ccc34)ccc2Cl)nn1 (stereo not shown) [Example 459, [2-Chloro-5-(7-morpholin-4-yl-quinazolin-4-yl)-phenyl]-(6-methoxy-pyridazin-3-yl)-methanol] | > 25000 nM |  |
| 500 to 5000 nM | 3 to 7 nM | COc1ccc(C(C(N)=O)c2cc(-c3ncnc4cc(N5CCOCC5)sc34)c(F)cc2Cl)nn1 (stereo not shown) [Example 272, 2-[2-Chloro-4-fluoro-5-(6-morpholin-4-yl-thieno[3,2-d}-pyrimidin-4-yl)-phenyl]-2-(6-methoxy-pyridazin-3-yl)acetamide] | > 25000 nM |  |

| SMILES | IC50 [5] | IC50 ([3]; biochemical DNA-PK assay) | Ki [6] | also measured |
| --- | --- | --- | --- | --- |
| CNC(=O)C(c1ccc2nccn2n1)c1cc(-c2ncnc3cc(N4CCOCC4)ccc23)c(F)cc1Cl (stereo not shown) [Example 236, 2-[2-Chloro-4-fluoro-5-(7-morpholin-4-yl-quinazolin-4-yl)-phenyl]-2-imidazo-[1,2-b]pyridazin-6-yl-N-methylacetamide] | 5000 to 10000 nM | > 30 nM | > 25000 nM |  |
| CNC(=O)C(c1ccc(F)c(-c2ncnc3cc(N4CCOCC4)ccc23)c1)c1ncccc1Cl (stereo not shown) [Example 230, 2-(3-Chloro-pyridin-2-yl)-2-[4-fluoro-3-(7-morpholin-4-yl-quinazolin-4-yl)-phenyl]-N-methyl-acetamide] | 5000 to 10000 nM | 7 to 30 nM | 15000 to 25000 nM |  |
